As a reminder, the IC50 is the concentration that gives 50% inhibition. A word on the EC50: it is the concentration that produces a half-maximal response.

For one data set, the target named is T1, Sa-ClpP (Staphylococcus aureus, UniProt Q2G036).
T1 construct: made in house; host or cells: E. coli BL21 (DE3)
In words: ADEP displacement fluorescence polarization assay. In kind it is binding, S. aureus. The essentials:
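Displacement of TAMRA-labelled ADEP 2591 probe (50 nM) from 1 μM Sa-ClpP, pre-equilibrated 1 h in Tris·HCl pH 8.0 with 2% DMSO, then 120 min at room temperature with compound, triplicate. Polarization (mP) read ex 530/em 579 nm, normalised to 20 μM ADEP 2378 and DMSO controls; four-parameter fit.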
A general note: Polarisation of emitted light reports the rotation of a fluorescent probe.

For the next data set, the system named is S. pyogenes ATCC 700294. In words: Minimal inhibitory concentration, microbroth dilution. The settings on record: Streptococcus pyogenes, ATCC700294, read-out: Minimal Inhibitory Concentration S. pyogenes ATCC 700294. Format: cell-based. Summed up:
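Twofold serial dilutions in broth per CLSI M7-A7 microbroth dilution, incubated aerobically overnight at 37° C. MIC read visually as lowest concentration preventing bacterial growth.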
(In general: Broth dilution looks for growth in wells or tubes with falling amounts of substance.)

Data set [1] is described as follows: Cytotoxicity assay, CellTiter-Glo cell viability. The settings on record: African green monkey. Format: cell-based. Summed up: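 Vero cells seeded overnight at 37 °C in DMEM with 10% FBS, then exposed to serial dilutions of compound for 72 h. Viability read by CellTiter-Glo luminescence; IC50 from duplicates, given as the range of two independent experiments.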
(In ATP-based viability assays light output follows the ATP content of the culture.)

For another data set, the target named is T2, S. aureus ClpP (Sa-ClpP) (Staphylococcus aureus, UniProt Q2G036).
T2 construct: made in house; host or cells: E. coli BL21 (DE3)
T2 sequence (Q2G036 whole entry): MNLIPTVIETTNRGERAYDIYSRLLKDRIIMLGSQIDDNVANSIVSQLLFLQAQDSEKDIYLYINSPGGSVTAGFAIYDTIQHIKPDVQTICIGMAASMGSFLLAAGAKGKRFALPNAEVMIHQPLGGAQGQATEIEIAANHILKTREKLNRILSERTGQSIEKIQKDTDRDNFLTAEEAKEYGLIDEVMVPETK
In words: ClpP activation, casein-BODIPY digestion assay (first described method). Format: biochemical. The essentials:
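Purified E. coli-expressed Sa-ClpP (10 μM) with 25 μg/ml BODIPY FL casein and 0-100 μM compound in 50 mM Tris pH 8, 200 mM KCl, 1 mM TCEP at 37° C. Fluorescence (ex 485/em 528 nm) read every 5 min over 45 min; velocities fit to dose-response for EC50 of 50% activation, in triplicate.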

Where [2] appears, read: 1 μM Sa-ClpP, 50 nM FP probe ADEP 2591, read-out: ADEP Displacement IC50.
Where [3] appears, read: Vero cells, 72 hours, read-out: Cytotoxicity IC50.
[4] abbreviates: first described ClpP activation assay (**), 10 μM saClpP, 25 μg/ml BODIPY FL casein, 37° C., read-out: ClpP Activation EC50.

Structures are written as SMILES. In brackets after ≈: the same amount, converted by molar mass. Where two headings read alike, the source gives them in different places. Where a SMILES comes first, the peptide text is derived from it. Bridges are numbered along the chain shown (N, C = ends). [ ]: non-standard residue; d: D form. The star is where a group is joined. Phe(3,5-F2) = N[C@@H](Cc1cc(F)cc(F)c1)C(=O)O; Heptenoyl(2E) = CCCC/C=C/C(=O)*; aThr = C[C@H](O)[C@H](N)C(=O)O; Pip = O=C(O)[C@@H]1CCCCN1

T1 sequence (Q2G036 whole entry): as above

With `C[C@@H]1C[C@H]2C(=O)OC[C@H](NC(=O)[C@H](Cc3ccccc3)NC(=O)Nc3cccc(Cl)c3)C(=O)N3CCC[C@H]3C(=O)N3CCCC[C@H]3C(=O)N[C@@H](C)C(=O)N2C1` [Compound 9, (S)-2-(3-(3-Chlorophenyl)Ureido)-N-((2R,6S,8aS,14aS,20S,23aS)-2,6-Dimethyl-5,8,14,19,23-Pentaoxooctadecahydro-1H,5H,14H,19H-Pyrido[2,1-I]Dipyrrolo[2,1-C:2′,1′-L][1]Oxa[4,7,10,13]Tetraazacyclohexadecin-20-Yl)-3-Phenylpropanamide], the IC50 on Sa-ClpP (setting [2]) was found to be 25.4 ± 2.2 µM. For the same molecule, the MIC with S. pyogenes ATCC 700294 turned out to be 1.56 µM (≈ 1.21 µg/mL). The IC50 at 72 h in data set [1] (setting [3]) is 89 ± 5 µM. Further, the EC50 on S. aureus ClpP (Sa-ClpP) (setting [4]) was 1 ± 0.1 µM.
For `Cc1ccc(NC(=O)N[C@@H](Cc2cc(F)cc(F)c2)C(=O)N[C@H]2COC(=O)[C@@H]3C[C@@H](C)CN3C(=O)[C@H](C)NC(=O)[C@@H]3CCCCN3C(=O)[C@@H]3CCCN3C2=O)cc1` [Compound 24, (S)-3-(3,5-Difluorophenyl)-N-((2R,6S,8aS,14aS,20S,23aS)-2,6-Dimethyl-5,8,14,19,23-Pentaoxooctadecahydro-1H,5H,14H,19H-Pyrido[2,1-I]Dipyrrolo[2,1-C:2′,1′-L][1]Oxa[4,7,10,13]Tetraazacyclohexadecin-20-Yl)-2-(3-(P-Tolyl)Ureido)Propanamide], the IC50 at Sa-ClpP (setting [2]) came out at 8.6 ± 0.5 µM. For the same molecule, the MIC in the data set with S. pyogenes ATCC 700294 was found to be 0.5 µM (≈ 0.397 µg/mL). In data set [1] (setting [3]), the half-maximal inhibitory concentration (IC50) at 72 h is 93.8 ± 4.8 µM. The half-maximal effective concentration (EC50) on S. aureus ClpP (Sa-ClpP) (setting [4]) came to 3.3 ± 0.2 µM.
At Sa-ClpP, `C[C@@H]1NC(=O)[C@@H]2CCCCN2C(=O)[C@@H]2CCCN2C(=O)[C@@H](NC(=O)[C@H](Cc2cc(F)cc(F)c2)NC(=O)Nc2ccc3c(c2)OCO3)[C@H](C)OC(=O)[C@@H]2CCCN2C1=O` [Compound 17, (S)-2-(3-(Benzo[D][1,3]Dioxol-5-Yl)Ureido)-3-(3,5-Difluorophenyl)-N-((6S,8aS,14aS,20S,21 S,23aS)-6,21-Dimethyl-5,8,14,19,23-Pentaoxooctadecahydro-1H,5H,14H,19H-Pyrido[2,1-I]Dipyrrolo[2,1-C:2′,1′-L][1]Oxa[4,7,10,13]Tetraazacyclohexadecin-20-Yl)Propanamide] came in with an IC50 of 7.2 ± 0.4 µM. The IC50 at 72 h in data set [1] was 46.5 ± 9.8 µM. On S. aureus ClpP (Sa-ClpP), the midpoint of the response, the EC50, lay at 3.6 ± 0.6 µM.
Turning to `Cc1ccc(NC(=O)N[C@@H](Cc2cc(F)cc(F)c2)C(=O)N[C@@H]2C(=O)N3CCC[C@H]3C(=O)N3CCCC[C@H]3C(=O)N[C@@H](C)C(=O)N3C[C@@H](C)C[C@H]3C(=O)O[C@H]2C)cc1` [Compound 18, (S)-3-(3,5-Difluorophenyl)-2-(3-(P-Tolyl)Ureido)-N-((2R,6S,8aS,14aS,20S,21S,23aS)-2,6,21-Trimethyl-5,8,14,19,23-Pentaoxooctadecahydro-1H,5H,14H,19H-Pyrido[2,1-I]Dipyrrolo[2,1-C:2′,1′-L][1]Oxa[4,7,10,13]Tetraazacyclohexadecin-20-Yl)Propanamide], the IC50 at Sa-ClpP (setting [2]) is 5.6 ± 0.3 µM. In addition, the MIC with S. pyogenes ATCC 700294 was under 0.1 µM. The IC50 at 72 h in data set [1] (setting [3]) amounted to 26.7 ± 3.6 µM. Also, the EC50 at S. aureus ClpP (Sa-ClpP) (setting [4]) stood at 7 ± 0.9 µM.
Consider `CCCC/C=C/C(=O)N[C@@H](Cc1cc(F)cc(F)c1)C(=O)N[C@@H]1C(=O)N2CCC[C@H]2C(=O)N2CCCC[C@H]2C(=O)N[C@@H](C)C(=O)N2CCC[C@H]2C(=O)O[C@H]1C` [ADEP 2719, reference compound] ({Heptenoyl(2E)}-[Phe(3,5-F2)][aThr]P[Pip]AP; ester 2-C), for which the IC50 on Sa-ClpP (setting [2]) amounted to 6.2 ± 0.3 µM. In data set [1] (setting [3]), the IC50 at 72 h amounted to 37.7 ± 3.4 µM.
For `C[C@@H]1C[C@H]2C(=O)OC[C@H](NC(=O)[C@H](Cc3ccccc3)NC(=O)Nc3ccc(N(C)C)cc3)C(=O)N3CCC[C@H]3C(=O)N3CCCC[C@H]3C(=O)N[C@@H](C)C(=O)N2C1` [Compound 5, (S)—N-((2R,6S,8aS,14aS,20S,23aS)-2,6-Dimethyl-5,8,14,19,23-Pentaoxooctadecahydro-1H,5H,14H,19H-Pyrido[2,1-1]Dipyrrolo[2,1-C:2′,1′-L][1]Oxa[4,7,10,13]Tetraazacyclohexadecin-20-Yl)-2-(3-(4-(Dimethylamino)Phenyl)Ureido)-3-Phenylpropanamide], the IC50 at Sa-ClpP (setting [2]) was determined as 28 ± 2.3 µM. Besides, the MIC in the data set on S. pyogenes ATCC 700294 came to 0.78 µM (≈ 0.614 µg/mL). Moreover, the IC50 at 72 h in data set [1] (setting [3]) came out at 91.3 ± 12.7 µM. Also, at S. aureus ClpP (Sa-ClpP) (setting [4]), the EC50 amounted to 1.3 ± 0.2 µM.
`C[C@H]1C[C@H]2C(=O)O[C@@H](C)[C@H](NC(=O)[C@H](Cc3cc(F)cc(F)c3)NC(=O)Nc3ccc4c(c3)OCO4)C(=O)N3CCC[C@H]3C(=O)N3CCCC[C@H]3C(=O)N[C@@H](C)C(=O)N2C1` [Compound 20, (S)-2-(3-(Benzo[D][1,3]Dioxol-5-Yl)Ureido)-3-(3,5-Difluorophenyl)-N-((2R,6S,8aS,14aS,20S,21 S,23aS)-2,6,21-Trimethyl-5,8,14,19,23-Pentaoxooctadecahydro-1H,5H,14H,19H-Pyrido[2,1-I]Dipyrrolo[2,1-C:2′,1′-L][1]Oxa[4,7,10,13]Tetraazacyclohexadecin-20-Yl)Propanamide] yielded a half-maximal inhibitory concentration (IC50) at Sa-ClpP of 6 ± 0.3 µM. Also, the IC50 at 72 h in data set [1] came out at 52.8 ± 4.9 µM. The same molecule displayed an EC50 at S. aureus ClpP (Sa-ClpP) of 1.6 ± 0.3 µM.
In the case of `C[C@@H]1C[C@H]2C(=O)OC[C@H](NC(=O)[C@H](Cc3ccccc3)NC(=O)Nc3ccc4c(c3)CCN4C)C(=O)N3CCC[C@H]3C(=O)N3CCCC[C@H]3C(=O)N[C@@H](C)C(=O)N2C1` [Compound 11, (S)—N-((2R,6S,8aS,14aS,20S,23aS)-2,6-Dimethyl-5,8,14,19,23-Pentaoxooctadecahydro-1H,5H,14H,19H-Pyrido[2,1-I]Dipyrrolo[2,1-C:2′,1′-L][1]Oxa[4,7,10,13]Tetraazacyclohexadecin-20-Yl)-2-(3-(1-Methylindolin-5-Yl)Ureido)-3-Phenylpropanamide], the IC50 on Sa-ClpP (setting [2]) amounted to 4.45 ± 0.3 µM. Moreover, in the data set with S. pyogenes ATCC 700294, the MIC is 0.6 µM (≈ 0.479 µg/mL). The IC50 at 72 h in data set [1] (setting [3]) came out at 76 ± 10.6 µM. Besides, the EC50 on S. aureus ClpP (Sa-ClpP) (setting [4]) was 2.3 ± 0.3 µM.
For the molecule `Cc1ccc(NC(=O)N[C@@H](Cc2ccccc2)C(=O)N[C@H]2COC(=O)[C@@H]3C[C@@H](C)CN3C(=O)[C@H](C)NC(=O)[C@@H]3CCCCN3C(=O)[C@@H]3CCCN3C2=O)cc1` [Compound 23, (S)—N-((2R,6S,8aS,14aS,20S,23aS)-2,6-Dimethyl-5,8,14,19,23-Pentaoxooctadecahydro-1H,5H,14H,19H-Pyrido[2,1-I]Dipyrrolo[2,1-C:2′,1′-L][1]Oxa[4,7,10,13]Tetraazacyclohexadecin-20-Yl)-3-Phenyl-2-(3-(P-Tolyl)Ureido)Propanamide], the IC50 on Sa-ClpP (setting [2]) is 7.1 ± 0.3 µM. Besides, in the data set with S. pyogenes ATCC 700294, the MIC is under 0.2 µM. For the same molecule, in data set [1] (setting [3]), the 50% inhibitory concentration (IC50) at 72 h came out at 74 ± 7.7 µM. Further, the EC50 at S. aureus ClpP (Sa-ClpP) (setting [4]) amounted to 2.6 ± 0.4 µM.
For the molecule `C[C@H]1C[C@H]2C(=O)O[C@@H](C)[C@H](NC(=O)[C@H](Cc3cc(F)cc(F)c3)NC(=O)Nc3ccc(C(F)(F)F)cc3)C(=O)N3CCC[C@H]3C(=O)N3CCCC[C@H]3C(=O)N[C@@H](C)C(=O)N2C1` [Compound 19, (S)-3-(3,5-Difluorophenyl)-2-(3-(4-(Trifluoromethyl)Phenyl)Ureido)-N-((2R,6S,8aS,14aS,20S,21S,23aS)-2,6,21-Trimethyl-5,8,14,19,23-Pentaoxooctadecahydro-1H,5H,14H,19H-Pyrido[2,1-I]Dipyrrolo[2,1-C:2′,1′-L][1]Oxa[4,7,10,13]Tetraazacyclohexadecin-20-Yl)Propanamide], the IC50 on Sa-ClpP (setting [2]) amounted to 5.7 ± 0.3 µM. Moreover, the MIC with S. pyogenes ATCC 700294 was determined as 0.4 µM (≈ 0.345 µg/mL). In data set [1] (setting [3]), the concentration for half-maximal inhibition (IC50) at 72 h came to 36.8 ± 4.1 µM. Moreover, the EC50 at S. aureus ClpP (Sa-ClpP) (setting [4]) amounted to 3.2 ± 0.1 µM.

For the origin of these results see patent US9879050B2, “Substituted urea depsipeptide analogs as activators of the CLPP endopeptidase” (priority 2013, dated 2018).
